In the METLIN SMRT retention time set (Domingo-Almenara et al. 2019):

Assay: gradient 5% acetonitrile 3 min, to 50% in 2 min, to 85% in 15 min, held 3 min, 100 µL/min
Conditions: column: Zorbax Extend-C18 2.1 x 50 mm; eluents: water / acetonitrile, 0.1% formic acid
In short: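 Each retention time is based on an adduct peak selected computationally and verified by manual inspection. Measurements used HPLC–quadrupole time-of-flight mass spectrometry in positive and negative ionization mode on mixtures of ~100 pure standards. Chromatography ran on a Zorbax Extend-C18 column (2.1 × 50 mm, 1.8 μm) at 100 μL/min with water and acetonitrile, each containing 0.1% formic acid, and dead and dwell volumes of 40 μL and 900 μL.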

SMILES	RP-LC retention time [s]
COc1ccc(OC)c(NS(=O)(=O)c2cccs2)c1	777
O=C(Nc1ccc(Cl)cc1)Nc1cccn2ncnc12	838
CN1C(=O)c2cccnc2Sc2cc(C(=O)NCc3ccc(Cl)cc3)ccc21	812
CC(C)CN1C(=O)c2cccn2CC1C(=O)N1CCCC1 (configuration not stated)	674
Clc1ccc(OCc2nc(-c3cccc(-c4ccn[nH]4)c3)no2)cc1	1010
CCc1nc2cc(N3CCC(C(=O)NC(C)c4ccc(OC)cc4)CC3)cnc2nc1CC (configuration not stated)	868
CCn1cc(-c2nc(C(=O)Nc3ccc(C#N)cc3)cs2)c2cccnc21	1050
CCc1c2c(nc3sc(C(=O)NCC4CCCO4)c(N)c13)CC(C)(C)CC2=O (configuration not stated)	836
Cc1ccc(NC(=O)C2(C)Oc3cccnc3NC2=O)cc1 (configuration not stated)	727
Cc1noc([C@@H]2CC(F)(F)CN2C(=O)c2cc(C3CC3)[nH]n2)n1	726
CCCCN(CC)CCNC(=O)C1CCCN(c2ncnc3c2nc2n3CCCCC2)C1 (configuration not stated)	614
Cc1ccc(-c2cc3c(=O)n(Cc4nc(-c5ccc(Br)cc5)no4)ncn3n2)c(C)c1	1340
CC(O)(CS(=O)(=O)c1ccc(F)cc1)C(=O)Nc1ccc(C#N)c(C(F)(F)F)c1 (configuration not stated)	992
CCOc1ccc(-c2noc(N3CCC(C(=O)N4CCCC4)CC3)n2)cc1OC	782
Cc1oc(-c2[nH]ncc2C(=O)N(C)C)cc1S(=O)(=O)Nc1ccc(F)cc1Cl	696
O=C(NCc1ccc(F)cc1F)c1nnn2c1COC(c1ccc(Cl)cc1)C2 (configuration not stated)	1040
Cn1cccc1C(=O)N1CCN(C(=O)c2nnn3c2COC(c2ccc(Cl)cc2)C3)CC1 (configuration not stated)	839
O=C(CSc1nnc(COc2ccccc2Cl)o1)Nc1nc(-c2ccccc2)cs1	917
COC(=O)c1c(C)[nH]c(C(=O)N2CCCC(C(=O)NCc3ccc4c(c3)OCO4)C2)c1C (configuration not stated)	720
O=S(=O)(c1ccc(-c2csc(Nc3ccc(Cl)cc3)n2)cc1)N1CCOCC1	1080
Cc1cc(C)n(CCNC(=O)c2cnccn2)n1	566
Cc1ccc(C(=O)N2[C@H]3CC[C@@H]2c2cnc(C)nc2C3)cn1	562

SMILES	RP-LC retention time [s]
Nc1nc(Cl)cc(Nc2ccccc2Cl)n1	845
CCNc1cc(N2CCCC(CCC(=O)N3CCCC(C(=O)OCC)C3)C2)ncn1 (configuration not stated)	664
Clc1ccccc1-c1nc(-c2cccc(-c3ccn[nH]3)c2)no1	1040
Cc1cc(NC(=O)C2CCN(C(=O)c3ncn4c3COC(c3ccc(F)cc3)C4)CC2)ccc1F (configuration not stated)	839
CNCc1ccc(-c2cc(Cl)ccc2Cl)o1	653
O=C(Nc1cnc(-c2ccccc2)nc1)c1ccccc1C(F)(F)F	970
CN1c2cc(C(=O)N3CCN(C4CCCCC4)CC3)ccc2C(=O)N2CCCCC21 (configuration not stated)	608
Cc1ccc(CNC(=O)c2ccc(Cn3c(C(F)(F)F)nc4cccnc43)cc2)cc1	943
O=C(Nc1nnc2n1CCS2)c1ccc2c(c1)OCO2	590
Cc1cc(F)ccc1NC(=O)CCc1c(C)nn(-c2cc(N(C)C)ncn2)c1C	778
Cc1c(C(=O)N2CCCC2)cnn1-c1cc(-c2nc(C3CC3)no2)ccn1	864
COc1ccc(N2C(=O)C3N=NN(Cc4nc(-c5ccc(Cl)cc5)no4)C3C2=O)cc1OC (configuration not stated)	963
CCn1ccc2c(cc(C(=O)Nc3cc(C)c(Cl)cc3OC)n2C)c1=O	933
COc1cccc(-n2c(=O)c(C(=O)NCc3cc(F)cc(F)c3)c(O)c3cccnc32)c1	1170
Cc1ccc(C2=NC3(CCN(C(=O)c4ccc5c(c4)OCO5)CC3)ON2)cc1	939
C=CCc1ccc(OCC(O)CN2C(C)CCCC2C)c(OC)c1 (configuration not stated)	603
O=C1CC(c2ccco2)Sc2nc3ccccc3n21 (configuration not stated)	796
CCn1ccc2sc(C)c(C(=O)NCC(C)C)c2c1=O	747
CCOC(=O)c1c(C)[nH]c(C(=O)N2CCC(C(C)C(=O)NCc3ccc4c(c3)OCO4)CC2)c1C (configuration not stated)	778
c1ccc(-c2nc(C3CC3)no2)c(OC2CNC2)c1	614
COc1ccc(N2CCN(C(=O)c3cc4cc5cc(OC)ccc5nc4o3)CC2)cc1	829

Second part, the compound after the results:

RP-LC retention time [s]	SMILES
740	Cc1ccccc1CNC(=O)C1CCN(Cc2cn(C)c3ccc(Cl)cc23)CC1
635	CC(=O)N1CCC(NC(=O)Nc2cccc(C)c2)C1 (configuration not stated)
824	CC(C)n1cnc(S(=O)(=O)N2CCC(C(=O)Nc3ccc(Cl)cc3)CC2)c1
646	Cc1noc(-c2ccc(=O)n(C(C)C(=O)NCc3cccs3)c2)n1 (configuration not stated)
1110	COC1CN(c2cccc(F)c2)C12CCN(S(=O)(=O)c1cccc3cccnc13)CC2 (configuration not stated)
736	CCn1nc(N2CCCC(NS(=O)(=O)c3cccc4cccnc34)C2)ccc1=O (configuration not stated)
641	O=C(NCc1cccs1)C1CCCN(C(=O)c2cc(-c3ccccn3)n[nH]2)C1 (configuration not stated)
644	CC(CCNC(=O)c1nnc(-c2ccc(S(=O)(=O)N3CCCC3)cc2)o1)N1CCCCCC1 (configuration not stated)
1030	CCn1c(=O)c(N2CCN(C(=O)Nc3ccc(Br)cc3)CC2)nc2ccccc21
722	CCn1ncc(NC(=O)c2ccc(OC)c(OC)c2)c(N2CCOCC2)c1=O
701	O=C(NCc1ccccc1)C1Oc2ccccc2NC1=O (configuration not stated)
800	CNC(=O)c1cc(-c2cccc(OC)c2)nc2ccccc12
723	CCC(C(=O)N1CCN(c2ccc(-c3ccc4c(c3)OCO4)nn2)CC1)c1ccccc1 (configuration not stated)
836	Cc1cccc(-n2c(=O)c3c(cc(C)n3C)n(CC(=O)Nc3ccccc3F)c2=O)c1
706	COCCN1C(=O)c2ccccc2C(C(=O)Nc2ccc(NC(C)=O)cc2)C12CCCCC2 (configuration not stated)
830	CCOc1ccccc1NC(=O)C1CCN(S(C)(=O)=O)c2cc(C)ccc2O1 (configuration not stated)
1070	CCCCN1C(=O)C(C)(C(=O)Nc2ccc(F)c(F)c2)Oc2cccnc21 (configuration not stated)
707	CCCS(=O)(=O)N1CCc2c(c(CN(C(C)=O)c3ccccc3)nn2C)C1
761	COc1ccccc1CC(=O)N1CCCC1c1cc(C)on1 (configuration not stated)
789	CCC(=O)N1CCc2cc(N3CC(C(=O)Nc4cccc(SC)c4)CC3=O)ccc21 (configuration not stated)
889	COc1ccc(C2(C(=O)N3CCN(S(=O)(=O)c4c(C)nn(C(C)C)c4C)CC3)CC2)cc1
660	Cn1c(N2CCCN(C(=O)c3ccc(F)c(F)c3)CC2)cc(=O)n(C)c1=O
1170	CCOc1nc2ccccc2nc1N1CCCC(C(=O)NCc2cccc(C)c2)C1 (configuration not stated)
722	Cc1ccc(C2NC(=O)N(CC(=O)Nc3cc(C)on3)C3=C2C(=O)OC3)cc1 (configuration not stated)
